Data reported in patent US8168651B2, “Protein kinase modulators” (Cylene Pharmaceuticals, Inc., priority 2008, dated 2012).
Like-named read-outs stand apart in the source and are kept apart here.

Assays:
[1] = target: recombinant human PIM1 (Homo sapiens (Human), UniProt P11309); experiment: PIM-1 kinase activity in cell-free in vitro assay; assay type: biochemical; conditions: cell-free assay; for inhibition at 0.5 µM / PIM-1: % inh 500 nM: 500 nM compound; for inhibition at 0.5 µM: read-out: PIM-1: % inh 500 nM
Chain of recombinant human PIM1 (P11309 whole entry): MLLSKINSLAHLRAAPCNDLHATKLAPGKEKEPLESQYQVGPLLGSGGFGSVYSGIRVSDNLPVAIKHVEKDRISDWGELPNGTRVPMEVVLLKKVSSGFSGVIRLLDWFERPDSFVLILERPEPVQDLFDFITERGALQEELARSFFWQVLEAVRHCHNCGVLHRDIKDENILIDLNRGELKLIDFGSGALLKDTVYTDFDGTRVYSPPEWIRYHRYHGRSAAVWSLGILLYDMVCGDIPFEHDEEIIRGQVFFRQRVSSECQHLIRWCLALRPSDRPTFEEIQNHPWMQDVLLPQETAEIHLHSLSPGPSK

[2] = test system: Jurkat; experiment: Cell proliferation modulatory activity, Jurkat; assay type: cell-based
[3] = test system: HCT-116 human colorectal carcinoma cells; experiment: Cell-proliferation assay using Alamar Blue dye; assay type: cell-based; conditions: Homo sapiens;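 note: cells exposed to compound for about 4 days, then Alamar Blue added and dye fluorescence read after about 4 h, compared with medium-only control wells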
[4] = target: recombinant human CK2 (Homo sapiens (Human), UniProt P68400); experiment: CK2 assay (cell-free, 33P-ATP filter plate); assay type: biochemical; conditions: 500 nM compound, cell-free assay; read-out: CK2: % inh 500 nM
Chain of recombinant human CK2 (P68400 whole entry): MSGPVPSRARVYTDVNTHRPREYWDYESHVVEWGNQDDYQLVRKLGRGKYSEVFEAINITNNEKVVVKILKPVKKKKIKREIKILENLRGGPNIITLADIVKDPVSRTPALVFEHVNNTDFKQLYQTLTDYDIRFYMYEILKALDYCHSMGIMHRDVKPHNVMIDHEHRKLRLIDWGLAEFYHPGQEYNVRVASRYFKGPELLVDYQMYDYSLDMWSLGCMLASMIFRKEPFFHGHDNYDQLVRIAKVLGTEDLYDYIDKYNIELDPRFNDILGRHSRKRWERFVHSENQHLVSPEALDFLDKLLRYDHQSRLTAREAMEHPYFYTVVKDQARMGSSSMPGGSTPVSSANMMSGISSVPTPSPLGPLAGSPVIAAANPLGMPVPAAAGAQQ
Chain of recombinant human CK2 (P67870 whole entry partner): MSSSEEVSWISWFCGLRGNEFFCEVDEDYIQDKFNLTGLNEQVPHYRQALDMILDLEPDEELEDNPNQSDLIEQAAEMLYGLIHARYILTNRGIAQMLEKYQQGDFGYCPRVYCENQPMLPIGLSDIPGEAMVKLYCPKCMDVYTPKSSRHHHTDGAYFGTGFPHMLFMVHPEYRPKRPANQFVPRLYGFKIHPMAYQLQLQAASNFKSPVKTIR

[5] = test system: K-562; experiment: Cell proliferation modulatory activity, K-562; assay type: cell-based; conditions: Homo sapiens, K562; K-562 cells
[6] = test system: MV-4-11; experiment: Cell proliferation modulatory activity, MV-4-11; assay type: cell-based; conditions: Homo sapiens, MV4-11; MV-4-11 cells
[7] = HCT-116, HCT-116, second HCT-116 column (c8), read-out: HCT-116 (uM), cell proliferation modulatory activity
[8] = HCT-116, second HCT-116 column (c8), read-out: HCT-116 (uM) cell proliferation modulatory activity

Row | Structure (SMILES) | inhibition at 0.5 µM [1] | IC50 ([2]; Homo sapiens) | also measured
1 | CCCNc1ncc2c(n1)c(Nc1ccccc1)nc1cc(C(=O)O)ccc12 | 29.9% | 4.53 µM | –
2 | COCCNc1ncc2c(n1)c(Nc1ccccc1)nc1cc(C(=O)O)ccc12 | 19.8% | 5.8 µM | –
3 | O=C(O)c1ccc2c(c1)nc(Nc1ccccc1)c1nc(NCCCO)ncc12 | 49.3% | 7.9 µM | –
4 | C#Cc1cccc(Nc2nc3cc(C(=O)O)ccc3c3cnc(NCCC)nc23)c1 | 45.6% | 2.67 µM | –
5 | C#Cc1cccc(Nc2nc3cc(C(=O)O)ccc3c3cnc(NCCCN4CCOCC4)nc23)c1 | 41.6% | 3.69 µM | –
6 | O=C(O)c1ccc2c(c1)nc(Nc1cccc(C(F)(F)F)c1)c1ncncc12 | – | 2.53 µM | –
7 | CN(C)c1ncc2c(n1)c(Nc1cccc(Cl)c1)nc1cc(C(=O)O)ccc12 | – | 5.83 µM | IC50 [3, 7]: > 10 µM
8 | Nc1ncc2c(n1)c(Nc1cccc(Cl)c1)nc1cc(C(=O)O)ccc12 | 85.7% | 1.14 µM | –
9 | CCNc1ncc2c(n1)c(Nc1cccc(Cl)c1)nc1cc(C(=O)O)ccc12 | – | 3.06 µM | –
10 | Nc1ncc2c(n1)c(Nc1ccc(F)c(Cl)c1)nc1cc(C(=O)O)ccc12 | 38.8% | 4.34 µM | –
11 | COCCNc1ncc2c(n1)c(Nc1ccc(F)c(Cl)c1)nc1cc(C(=O)O)ccc12 | 22.9% | 0.413 µM | –
12 | C#Cc1cccc(Nc2nc3cc(C(=O)O)ccc3c3cnc(NCCCOCC)nc23)c1 | 2.19% | 0.389 µM | –
13 | C#Cc1cccc(Nc2nc3cc(C(=O)O)ccc3c3cnc(NCCCOC(C)C)nc23)c1 | -1.78% | 2.37 µM | –
14 | COC(=O)c1ccc2c(c1)nc(Nc1cccc(Cl)c1)c1nc(NCCC(N)=O)ncc12 | -12.6% | 4.41 µM | –
15 | NC(=O)CCNc1ncc2c(n1)c(Nc1cccc(Cl)c1)nc1cc(C(=O)O)ccc12 | – | 37.7 µM | –
16 | O=C(O)c1ccc2c(c1)nc(Nc1cc(F)cc(F)c1)c1nc(NC3CC3)ncc12 | 48.9% | 6.02 µM | –
17 | COc1cccc(Nc2nc3cc(C(=O)O)ccc3c3cnc(NC4CC4)nc23)c1 | 36.5% | 3.44 µM | –
18 | CN(C)CCNc1ncc2c(n1)c(Nc1ccc(F)c(Cl)c1)nc1cc(C(=O)O)ccc12 | 53% | 1.25 µM | –
19 | O=C(O)c1ccc2c(c1)nc(Nc1ccc(F)c(Cl)c1)c1nc(NCc3ccccn3)ncc12 | 59.1% | 2.59 µM | –
20 | COC(CNc1ncc2c(n1)c(Nc1ccc(F)c(Cl)c1)nc1cc(C(=O)O)ccc12)OC | 57.6% | 1.12 µM | –
21 | O=C(NC1CC1)c1ccc2c(c1)nc(Nc1cccc(C(F)(F)F)c1)c1nc(NC3CC3)ncc12 | 16.7% | 3.92 µM | –
22 | CNC(=O)c1ccc2c(c1)nc(Nc1cccc(C(F)(F)F)c1)c1nc(NC3CC3)ncc12 | 16.2% | 3.65 µM | –
23 | O=C(O)c1ccc2c(c1)nc(Nc1ccc(F)c(Cl)c1)c1nc(NCc3cccnc3)ncc12 | 19.6% | 1.5 µM | –
24 | O=C(O)c1ccc2c(c1)nc(Nc1ccccc1)c1nc(Nc3ccccc3)ncc12 | 13% | 8.98 µM | –

Row | Structure (SMILES) | inhibition at 0.5 µM [1] | IC50 ([2]; Homo sapiens) | also measured
25 | CCOC(=O)CCNC(=O)c1ccc2c(c1)nc(Nc1cccc(C(F)(F)F)c1)c1nc(NC3CC3)ncc12 | 10.5% | 7.24 µM | –
26 | CN(C)c1ncc2c(n1)c(NC1CC1)nc1cc(C(=O)O)ccc12 | -38.5% | > 50 µM | IC50 [3, 7]: > 10 µM
27 | C#Cc1cccc(Nc2nc3cc(C(N)=O)ccc3c3cncnc23)c1 | -38.1% | 31.5 µM | IC50 [3, 7]: > 10 µM
28 | CC(=O)Nc1ccc2c(c1)nc(Nc1cccc(C(F)(F)F)c1)c1nc(NC3CC3)ncc12 | -39.8% | 1.22 µM | IC50 [3, 7]: > 10 µM
29 | O=C(O)c1ccc2c(c1)nc(NC1CC1)c1nc(NCCO)ncc12 | 22.4% | > 50 µM | –
30 | O=C(O)c1ccc2c(c1)nc(NC1CC1)c1nc(NCCN3CCOCC3)ncc12 | 41.2% | 21 µM | IC50 [3, 7]: > 10 µM
31 | O=C(O)c1ccc2c(c1)nc(NC1CC1)c1nc(NC(CO)c3ccccc3)ncc12 (stereo not drawn) | -22.8% | 27.5 µM | IC50 [3, 7]: > 10 µM
32 | COC(=O)c1ccc2c(c1)nc(NCCN1CCCC1)c1ccncc12 | 17.8% | – | inhibition at 0.5 µM [4]: 8.15%; IC50 [3, 8]: 0.9 µM; IC50 [5]: 1.25 µM; IC50 [6]: 0.368 µM
33 | O=C(O)c1ccc2c(c1)nc(Nc1cc(F)ccc1Br)c1ccncc12 | 64.5% | – | inhibition at 0.5 µM [4]: 98.4%; IC50 [3, 8]: > 10 µM; IC50 [1]: 0.376 µM; IC50 [5]: > 10 µM; IC50 [6]: 4.13 µM
34 | O=C(O)c1ccc2c(c1)nc(Nc1cccc(CO)c1)c1ccncc12 | 64.7% | – | inhibition at 0.5 µM [4]: 97.5%; IC50 [3, 8]: > 10 µM; IC50 [1]: 0.321 µM; IC50 [5]: > 10 µM; IC50 [6]: > 10 µM
35 | N#Cc1ccc(Nc2nc3cc(C(=O)O)ccc3c3cnccc23)cc1 | 67.3% | – | inhibition at 0.5 µM [4]: 95.6%; IC50 [3, 8]: > 10 µM; IC50 [1]: 0.31 µM; IC50 [5]: > 10 µM; IC50 [6]: > 10 µM
36 | NC(=O)c1cc(F)cc(Nc2nc3cc(C(=O)O)ccc3c3cnccc23)c1 | 85% | – | inhibition at 0.5 µM [4]: 99.2%; IC50 [3, 8]: > 10 µM; IC50 [1]: 0.093 µM; IC50 [5]: > 10 µM; IC50 [6]: > 10 µM
37 | NC(=O)c1cc(Cl)cc(Nc2nc3cc(C(=O)O)ccc3c3cnccc23)c1 | 90.5% | – | inhibition at 0.5 µM [4]: 102%; IC50 [3, 8]: > 10 µM; IC50 [1]: 0.09 µM; IC50 [5]: > 10 µM; IC50 [6]: > 10 µM
38 | CCc1cccc(Nc2nc3cc(C(=O)O)ccc3c3cnccc23)c1 | 85% | – | inhibition at 0.5 µM [4]: 101%; IC50 [3, 8]: > 10 µM; IC50 [1]: 0.122 µM; IC50 [5]: > 10 µM; IC50 [6]: 3.64 µM
39 | CC(C)c1cccc(Nc2nc3cc(C(=O)O)ccc3c3cnccc23)c1 | 72.4% | – | inhibition at 0.5 µM [4]: 99.5%; IC50 [3, 8]: > 10 µM; IC50 [1]: 0.485 µM; IC50 [5]: > 10 µM; IC50 [6]: 3.16 µM
40 | NC(=O)c1cccc(Nc2nc3cc(C(=O)O)ccc3c3cnccc23)c1 | 74.8% | – | inhibition at 0.5 µM [4]: 101%; IC50 [3, 8]: > 10 µM; IC50 [1]: 0.16 µM; IC50 [5]: > 10 µM; IC50 [6]: > 10 µM
41 | COc1ccc(Nc2nc3cc(C(=O)O)ccc3c3cnccc23)cc1OC | 59.3% | – | inhibition at 0.5 µM [4]: 98.5%; IC50 [3, 8]: > 10 µM; IC50 [1]: 0.311 µM; IC50 [5]: > 10 µM; IC50 [6]: > 10 µM
42 | O=C(O)c1ccc2c(c1)nc(Nc1ccc3c(c1)OCO3)c1ccncc12 | 76% | – | inhibition at 0.5 µM [4]: 101%; IC50 [3, 8]: > 10 µM; IC50 [1]: 0.157 µM; IC50 [5]: > 10 µM; IC50 [6]: 8.87 µM
43 | NC(=O)c1ccc(Nc2nc3cc(C(=O)O)ccc3c3cnccc23)cc1 | 78.2% | – | inhibition at 0.5 µM [4]: -5.09%; IC50 [3, 8]: > 10 µM; IC50 [1]: 0.248 µM; IC50 [5]: > 10 µM; IC50 [6]: > 10 µM
44 | O=C(O)c1ccc2c(c1)nc(Nc1cncc(C3CC3)c1)c1ccncc12 [drawing 1619] | – | > 50 µM | IC50 [3, 7]: > 10 µM
45 | CC1CCCCN1CCCNc1ncc2c(n1)c(Nc1ccc(F)c(Cl)c1)nc1cc(C(=O)O)ccc12 (stereo not drawn) [drawing 1629] | 38.9% | 2.86 µM | –
46 | COc1cccc(Nc2ncc3c(n2)c(NC2CC2)nc2cc(C(=O)O)ccc23)c1 [drawing 1717] | – | – | PIM-1: % inh 500 nM [1]: 5.494%; IC50 [2]: 54.6 µM
47 | COc1cccc(Nc2ncc3c(n2)c(NC2CC2)nc2cc(C(=O)O)ccc23)c1 [drawing 1720] | – | – | PIM-1: % inh 500 nM [1]: 60.859%; IC50 [1]: 0.97 µM; IC50 [2]: 3.15 µM
